Our source for the Ki values is patent publication US8420830B2, “Macrocyclic factor VIIa inhibitors useful as anticoagulants” (Bristol-Myers Squibb Company, priority 2006, dated 2013).

SMILES strings stand for the structures. Several values for one entry are separate records, joined by “and”; a condition that tells them apart may be missing. Equal values may be shown once. Where a name gives a salt, the structure may show the parent alone.

The assay deals with T1, Factor VIIa (Homo sapiens, UniProt P08709).
T1 construct: purchased Haematologic Technologies (purified) or Novo Nordisk (recombinant)
T1 sequence (P08709 213-466 limits assumed): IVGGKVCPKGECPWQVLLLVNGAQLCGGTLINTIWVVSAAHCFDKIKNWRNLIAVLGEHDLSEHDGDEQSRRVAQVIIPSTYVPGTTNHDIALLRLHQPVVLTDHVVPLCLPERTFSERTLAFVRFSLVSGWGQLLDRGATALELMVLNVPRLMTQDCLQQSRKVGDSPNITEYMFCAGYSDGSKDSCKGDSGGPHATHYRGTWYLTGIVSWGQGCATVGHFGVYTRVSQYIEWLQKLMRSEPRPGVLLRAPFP
T1 sequence (P08709 61-212 limits assumed): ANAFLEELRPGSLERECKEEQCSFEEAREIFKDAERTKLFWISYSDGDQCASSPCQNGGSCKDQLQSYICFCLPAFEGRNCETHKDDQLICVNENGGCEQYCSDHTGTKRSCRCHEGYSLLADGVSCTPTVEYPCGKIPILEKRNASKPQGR
T1 sequence (P13726 33-251 partner limits assumed): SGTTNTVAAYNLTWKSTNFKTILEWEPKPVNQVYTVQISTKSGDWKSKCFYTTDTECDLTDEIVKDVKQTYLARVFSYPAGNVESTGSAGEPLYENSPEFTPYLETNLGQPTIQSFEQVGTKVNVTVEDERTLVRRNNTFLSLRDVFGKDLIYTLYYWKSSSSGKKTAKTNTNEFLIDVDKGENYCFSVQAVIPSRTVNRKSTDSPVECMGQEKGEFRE
Description: Factor VIIa assay. It counts as biochemical. The settings on record: measured in the Factor VIIa assay described above; several values in a cell are repeat determinations.
In general, Ki refers to a measure of affinity in units of concentration, obtained from inhibition or displacement. Read a high Ki as a looser hold on the target. `Cc1cc2ccc1[C@@H](C)COC(=O)Nc1ccc(S(=O)(=O)C3CC3)c(c1)CN(C)C(=O)[C@@H]2Nc1ccc2nc[nH]c(=O)c2c1` [Example 76, (2R,15R)-7-Cyclopropanesulfonyl-4,15,17-trimethyl-2-(4-oxo-3,4-dihydro-quinazolin-6-ylamino)-13-oxa-4,11-diaza-tricyclo[14.2.2.1^6,10]henicosa-1(19),6,8,10(21),16(20),17-hexaene-3,12-dione trifluoroacetate]: the inhibition constant (Ki) was 0.69 nM and 0.86 nM and 0.87 nM and 0.96 nM and 1.14 nM and 1.22 nM.

As for `COCCN1Cc2cccc(c2)NC(=O)OC[C@H](C)c2ccc(cc2C)[C@@H](Nc2ccc3cc[nH]c(=O)c3c2)C1=O` [Example 152, (2R,15R)-4-(2-Methoxy-ethyl)-15,17-dimethyl-2-(1-oxo-1,2-dihydro-isoquinolin-7-ylamino)-13-oxa-4,11-diaza-tricyclo[14.2.2.1^6,10]henicosa-1(19),6,8,10(21),16(20),17-hexaene-3,12-dione], the Ki is 1060 nM.

For `Cc1cc2ccc1[C@@H](C)COC(=O)Nc1cccc(c1)CN(CCNC(=O)OC(C)(C)C)C(=O)[C@@H]2Nc1ccc2cc[nH]c(=O)c2c1` [Example 148, {2-[(2R,15R)-15,17-Dimethyl-3,12-dioxo-2-(1-oxo-1,2-dihydro-isoquinolin-7-ylamino)-13-oxa-4,11-diaza-tricyclo[14.2.2.1^6,10]henicosa-1(19),6,8,10(21),16(20),17-hexaen-4-yl]-ethyl}-carbamic acid tert-butyl ester], the Ki stood at 2530 nM.

Molecule `CCC(=O)N1CC(=O)Nc2ccc(S(=O)(=O)C(C)C)c(c2)CNC(=O)C(Nc2ccc3nc[nH]c(=O)c3c2)c2cc(C)c(c(C)c2)C1` (stereo not drawn) [Example 118, 17,20-Dimethyl-2-(4-oxo-3,4-dihydro-quinazolin-6-ylamino)-7-(propane-2-sulfonyl)-14-propionyl-4,11,14-triaza-tricyclo[14.2.2.1^6,10]henicosa-1(19),6,8,10(21),16(20),17-hexaene-3,12-dione trifluoroacetate] came in with a Ki of 28.1 nM.

Take `CCOC(=O)CCN1Cc2cccc(c2)NC(=O)OCCc2c(C)cc(cc2C)[C@@H](Nc2ccc3cc[nH]c(=O)c3c2)C1=O` [Example 144, 3-[17,20-Dimethyl-3,12-dioxo-2-(1-oxo-1,2-dihydro-isoquinolin-7-ylamino)-13-oxa-4,11-diaza-tricyclo[14.2.2.1^6,10]henicosa-1(19),6,8,10(21),16(20),17-hexaen-4-yl]-propionic acid ethyl ester]: the inhibitory constant (Ki) worked out at 3100 nM.

Turning to `Cc1cc2ccc1[C@@H](C)CCC(=O)Nc1ccc(OC(F)(F)F)c(c1)CN(C)C(=O)[C@@H]2Nc1ccc2c(F)c[nH]c(=O)c2c1` (single isomer, unassigned) [Example 42], the Ki came out at 27.6 nM.

`COC(=O)N1CC(=O)Nc2ccc(S(=O)(=O)C(C)C)c(c2)CNC(=O)C(Nc2ccc3nc[nH]c(=O)c3c2)c2cc(C)c(c(C)c2)C1` (stereo not drawn) [Example 117, 17,20-Dimethyl-3,12-dioxo-2-(4-oxo-3,4-dihydro-quinazolin-6-ylamino)-7-(propane-2-sulfonyl)-4,11,14-triaza-tricyclo[14.2.2.1^6,10]henicosa-1(19),6,8,10(21),16(20),17-hexaene-14-carboxylic acid methyl ester trifluoroacetate] came in with a Ki of 21.9 nM.

`CC(=O)N1CC(=O)Nc2ccc(S(=O)(=O)C(C)C)c(c2)CNC(=O)C(Nc2ccc3cc[nH]c(=O)c3c2)c2cc(C)c(c(C)c2)C1` (stereo not drawn) [Example 128, 14-Acetyl-17,20-dimethyl-2-(1-oxo-1,2-dihydro-isoquinolin-7-ylamino)-7-(propane-2-sulfonyl)-4,11,14-triaza-tricyclo[14.2.2.1^6,10]henicosa-1(19),6,8,10(21),16(20),17-hexaene-3,12-dione trifluoroacetate] came in with a Ki of 26.6 nM.

`COc1cc2ccc1[C@@H](C)COC(=O)Nc1ccc(S(=O)(=O)C3CC3)c(c1)CN(C)C(=O)[C@@H]2Nc1ccc2cc[nH]c(=O)c2c1` [Example 82, (2R,15R)-7-Cyclopropanesulfonyl-17-methoxy-4,15-dimethyl-2-(1-oxo-1,2-dihydro-isoquinolin-7-ylamino)-13-oxa-4,11-diaza-tricyclo[14.2.2.1^6,10]henicosa-1(19),6,8,10(21),16(20),17-hexaene-3,12-dione] came in with a Ki of 0.61 nM.

The molecule `C[C@H]1COC(=O)Nc2ccc(S(=O)(=O)C3CC3)c(c2)CN(C)C(=O)[C@H](Nc2ccc3cc[nH]c(=O)c3c2)c2ccc1c(Cl)c2` [Example 84, (2R,15R)-17-Chloro-7-cyclopropanesulfonyl-4,15-dimethyl-2-(1-oxo-1,2-dihydro-isoquinolin-7-ylamino)-13-oxa-4,11-diaza-tricycle [14.2.2.1^6,10]henicosa-1(19),6,8,10(21),16(20),17-hexaene-3,12-dione] returned an inhibitory constant (Ki) of 1.44 nM.

As for `Cc1cc2cc(C)c1CCOC(=O)Nc1cccc(c1)CN(C)C(=O)C2Nc1ccc2cc[nH]c(=O)c2c1` (stereo not drawn) [Example 14, 4,17,20-Trimethyl-2-(1-oxo-1,2-dihydro-isoquinolin-7-ylamino)-13-oxa-4,11-diaza-tricyclo[14.2.2.1^6,10]henicosa-1(19),6,8,10(21),16(20),17-hexaene-3,12-dione], the Ki came out at 1520 nM.

Consider `Cc1cc2cc(C)c1CN(C(C)C)CC(=O)Nc1ccc(S(=O)(=O)C(C)C)c(c1)CNC(=O)C2Nc1ccc2nc[nH]c(=O)c2c1` (stereo not drawn) [Example 124, 14-Isopropyl-17,20-dimethyl-2-(4-oxo-3,4-dihydro-quinazolin-6-ylamino)-7-(propane-2-sulfonyl)-4,11,114-triaza-tricyclo[14.2.2.1^6,10]henicosa-1(19),6,8,10(21),06(20),17-hexaene-3,12-dione bistrifluoroacetate], for which affinity was put at a Ki of 33.2 nM.

With `COC(=O)NCCN1Cc2cccc(c2)NC(=O)OC[C@H](C)c2ccc(cc2C)[C@@H](Nc2ccc3cc[nH]c(=O)c3c2)C1=O` [Example 153, {2-[(2R,15R)-15,17-Dimethyl-3,12-dioxo-2-(1-oxo-1,2-dihydro-isoquinolin-7-ylamino)-13-oxa-4,11-diaza-tricyclo[14.2.2.1^6,10]henicosa-1(19),6,8,10(21),16(20),17-hexaen-4-yl]-ethyl}-carbamic acid methyl ester], the affinity corresponds to a Ki of 1460 nM.

Consider `CCOC(=O)CCN1Cc2cccc(c2)NC(=O)OC[C@H](C)c2ccc(cc2C)[C@@H](Nc2ccc3cc[nH]c(=O)c3c2)C1=O` [Example 154, 3-[(2R,15R)-15,17-Dimethyl-3,12-dioxo-2-(1-oxo-1,2-dihydro-isoquinolin-7-ylamino)-13-oxa-4,11-diaza-tricyclo[14.2.2.1^6,10]henicosa-1(19),6,8,10(21),16(20),17-hexaen-4-yl]-propionic acid ethyl ester], for which the inhibition constant (Ki) was determined as 1000 nM.

`Cc1cc2ccc1[C@@H](C)COC(=O)Nc1ccc(S(=O)(=O)C3CC3)c(c1)CN(C)C(=O)[C@@H]2Nc1cc2c(=O)[nH]cnc2cc1F` [Example 78, (2R,15R)-7-Cyclopropanesulfonyl-2-(7-fluoro-4-oxo-3,4-dihydro-quinazolin-6-ylamino)-4,15,17-trimethyl-13-oxa-4,1-diaza-tricyclo[14.2.2.1^6,10]henicosa-1(19),6,8,10(21),16(20),17-hexaene-3,12-dione]: the Ki is 1.35 nM and 1.38 nM.
